One assay deals with T1, Human TG2 (Homo sapiens, UniProt P21980).
T1 construct: made in house
T1 sequence (P21980 1-687): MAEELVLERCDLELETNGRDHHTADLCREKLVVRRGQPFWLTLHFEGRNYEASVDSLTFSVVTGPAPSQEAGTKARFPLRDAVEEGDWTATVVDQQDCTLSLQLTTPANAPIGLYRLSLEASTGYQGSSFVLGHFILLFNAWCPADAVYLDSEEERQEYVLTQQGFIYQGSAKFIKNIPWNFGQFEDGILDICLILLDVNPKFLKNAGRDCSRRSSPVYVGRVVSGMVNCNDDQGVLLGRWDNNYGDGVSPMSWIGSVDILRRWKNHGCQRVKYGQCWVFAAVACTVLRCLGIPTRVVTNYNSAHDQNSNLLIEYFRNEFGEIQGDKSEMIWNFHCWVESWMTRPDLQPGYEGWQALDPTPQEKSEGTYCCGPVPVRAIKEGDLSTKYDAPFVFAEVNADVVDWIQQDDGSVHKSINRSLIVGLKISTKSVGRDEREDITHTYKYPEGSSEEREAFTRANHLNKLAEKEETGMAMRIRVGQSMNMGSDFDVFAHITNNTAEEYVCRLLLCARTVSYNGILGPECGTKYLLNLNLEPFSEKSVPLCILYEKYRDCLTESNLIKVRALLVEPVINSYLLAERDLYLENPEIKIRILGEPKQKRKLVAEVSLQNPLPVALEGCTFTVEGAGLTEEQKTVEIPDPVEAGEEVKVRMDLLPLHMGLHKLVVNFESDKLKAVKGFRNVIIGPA
Set-up: method as in PMID 35158154, PMID 28858494. Particulars: read-out: KM of substrate for TG2; cited from earlier work.

Assay [1] deals with T2, Thrombin-activated human FXIIIa (Homo sapiens, UniProt P00488).
T2 construct: purchased Zedira GmbH T070
T2 sequence (P00488 39-732 limits assumed): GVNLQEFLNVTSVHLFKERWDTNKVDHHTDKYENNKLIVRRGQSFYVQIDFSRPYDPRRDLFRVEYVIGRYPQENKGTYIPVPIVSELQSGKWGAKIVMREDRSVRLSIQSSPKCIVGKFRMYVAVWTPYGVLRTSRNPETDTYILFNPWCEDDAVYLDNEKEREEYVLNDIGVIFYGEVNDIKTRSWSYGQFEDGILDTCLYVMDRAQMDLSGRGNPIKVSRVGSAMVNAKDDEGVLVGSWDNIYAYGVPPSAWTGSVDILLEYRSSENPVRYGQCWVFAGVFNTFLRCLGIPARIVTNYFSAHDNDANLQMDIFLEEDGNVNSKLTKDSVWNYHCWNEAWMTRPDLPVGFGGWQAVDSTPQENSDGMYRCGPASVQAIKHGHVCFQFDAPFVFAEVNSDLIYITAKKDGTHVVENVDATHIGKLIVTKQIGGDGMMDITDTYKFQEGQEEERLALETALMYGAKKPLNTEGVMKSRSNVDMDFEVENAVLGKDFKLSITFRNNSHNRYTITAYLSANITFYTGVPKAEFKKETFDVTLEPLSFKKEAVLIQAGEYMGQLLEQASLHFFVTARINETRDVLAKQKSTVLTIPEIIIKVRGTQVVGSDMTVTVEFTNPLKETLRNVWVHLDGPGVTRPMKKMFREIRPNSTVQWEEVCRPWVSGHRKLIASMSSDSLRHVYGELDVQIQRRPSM
The experiment in a line: Fluorescence-quenched A101 isopeptidase assay of FXIIIa inhibition kinetics. The format is biochemical. The following applies: 0, 100, 200, 320 µM.

This is an account of results in paper PMC9960274, “Peptidic Inhibitors and a Fluorescent Probe for the Selective Inhibition and Labelling of Factor XIIIa Transglutaminase” (Molecules, 2023).

Molecules are shown by their SMILES. Non-standard residues stand in square brackets, D forms with d. Residues, ends and D or L forms follow the SMILES beside them. ξ: configuration not given here. *: point of attachment. ONp = O=[N+]([O-])c1ccc(O*)cc1; ξE = NC(CCC(=O)O)C(=O)O; Cbz = O=C(OCc1ccccc1)*

Turning to `O=C(O)CNC(=O)C(CCC(=O)Oc1ccc([N+](=O)[O-])cc1)NC(=O)OCc1ccccc1` (centres unmarked) [AL5, Cbz-Glu(ɣ-p-nitrophenyl ester)Gly-OH] (Cbz-[ξE](ONp)-Gly-OH), on Human TG2, the Km was 10 µM. Take `CN(C)c1cccc2c(S(N)(=O)=O)cccc12` [Dansyl amide]: in assay [1], the “traces in FXIIIa A101 inhibition assay (fluorescence interference control)” value was “nearly identical traces as those obtained using the dansylated inhibitor library”.

Broadly, the Km is the concentration of substrate that gives half-maximal velocity.
